In US11629171B2, “Beta-hairpin peptidomimetics” (POLYPHOR AG, priority 2017, dated 2023):
Values after ≈ are worked out from the molar mass of the structure shown. Where a SMILES comes first, the peptide text is derived from it. Bridges are numbered along the chain shown (N, C = ends). Roman numbers before positions name the chains, in order. [ ]: non-standard residue; d: D form. The star is where a group is joined. Tyrosinol = OC[C@H](Cc1ccc(O)cc1)N*; Thr(ol) = C[C@@H](O)[C@H](N)CO; aThr = C[C@H](O)[C@H](N)C(=O)O; Pen = CC(C)(S)[C@H](N)C(=O)O; Tle = CC(C)(C)[C@H](N)C(=O)O; Hiv = CC(C)[C@H](O)C(=O)O; dDab = NCC[C@@H](N)C(=O)O; hSer = N[C@@H](CCO)C(=O)O; Orn = NCCC[C@H](N)C(=O)O; Dab = NCC[C@H](N)C(=O)O; Abu = CC[C@H](N)C(=O)O; Dap = NC[C@H](N)C(=O)O

Legend:
male ICR mice = experiment: Tolerability in a mouse model (Maximum Tolerated Dose assay); format: in vivo; conditions: groups of 3
Procedure, shortened: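 Peptides in 0.9% NaCl (pH 6.5-7.6) given s.c. at 30 or 40 mg/kg, twice 12 h apart, to groups of 3 male ICR mice (23±3 g). Acute toxic signs (mortality, convulsions, tremors, sedation) and autonomic effects (diarrhea, salivation, piloerection) observed for 30 min after each dose.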

[1] = system: Acinetobacter baumannii 872842; format: cell-based; conditions: 872842
Procedure, shortened: (§1)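 Cation-adjusted MH-II broth, 0.002% polysorbate 80, inoculum near 10^6 CFU/mL. MIC read visually after 18-20 h, 35° C; units μg/mL.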

[2] = system: Escherichia coli ATCC 25922; format: cell-based; conditions: ATCC 25922
Procedure, shortened: as §1

[3] = system: Acinetobacter baumannii DSM 30008; format: cell-based; conditions: DSM 30008
Procedure, shortened: as §1

[4] = system: Klebsiella pneumoniae SSI #3010; format: cell-based; conditions: SSI #3010
Procedure, shortened: as §1

Escherichia coli 926415 = format: cell-based; conditions: 926415
Procedure, shortened: as §1

[5] = system: Klebsiella pneumoniae 968733; format: cell-based; conditions: 968733
Procedure, shortened: as §1

[6] = system: Pseudomonas aeruginosa ATCC 27853; format: cell-based; conditions: ATCC 27853
Procedure, shortened: as §1

[7] = system: Enterobacter cloacae 848840; format: cell-based; conditions: 848840
Procedure, shortened: as §1

[8] = system: human red blood cells (hRBC); experiment: Hemolysis; format: cell-based; conditions: red cells of human, 1 h, 200
Procedure, shortened: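 Percent lysis of human red cells was derived from OD540 of the supernatant, referenced to 2% Triton X-100, after a 1 h, 37° C incubation of 20% (v/v) cells with 200 μg/mL peptide.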

[9] = 2 × 30 mg/kg s.c. at a 12-hr interval
[10] = 2 × 40 mg/kg s.c. at a 12-hr interval

SMILES	Mortality and dose (male ICR mice; [9])	MIC [1] [µg/mL]	MIC [2] [µg/mL]	MIC [3] [µg/mL]	MIC [4] [µg/mL]	MIC (Escherichia coli 926415) [µg/mL]	MIC [5] [µg/mL]	MIC [6] [µg/mL]	MIC [7] [µg/mL]	Hemolysis at 200 μg/mL [8] [%]	Mortality and dose (male ICR mice; [10])	Escherichia coli ATCC 25922 MIC [2] [µg/mL]	Acinetobacter baumannii DSM 30008 MIC [3] [µg/mL]	Klebsiella pneumoniae SSI #3010 MIC [4] [µg/mL]	Pseudomonas aeruginosa ATCC 27853 MIC [6] [µg/mL]
CC[C@@H]1NC(=O)[C@@H](CC(C)C)NC(=O)[C@H](CCN)NC(=O)[C@@H](NC(=O)[C@H](CN)NC(=O)[C@@H](NC(=O)[C@H](CCN)NC(=O)CC[C@@H]2NC(=O)[C@H](CO)NC(=O)[C@H](Cc3ccc(O)cc3)NC(=O)[C@@H](NC(=O)[C@@H](NC(C)=O)C(C)C)CSSC[C@@H](C(=O)N[C@@H](CO)C(N)=O)NC(=O)[C@H]([C@@H](C)CC)NC(=O)[C@H](CO)NC(=O)[C@H](Cc3c[nH]c4ccccc34)NC(=O)[C@H](CO)NC(=O)[C@@H](CCN)NC2=O)[C@@H](C)O)CCNC(=O)[C@H]([C@@H](C)O)NC(=O)[C@H](CCN)NC(=O)[C@H](CCN)NC1=O [Ex. 260] (I: Ac-VCYSE[dDab]SWSICS-NH2 / II: [Dab]T[Dap][Dab][Dab][dL][Abu][Dab][Dab]T; disulfide I:2-I:11; amide I:5-II:N; lactam II:4-II:C)	0/3 died at 2 × 30 mg/kg	0.0625 (≈ 0.0264 µM)	0.01562 (≈ 0.00659 µM)	0.01562 (≈ 0.00659 µM)	0.0625 (≈ 0.0264 µM)	0.5 (≈ 0.211 µM)	0.5 (≈ 0.211 µM)	0.0625 (≈ 0.0264 µM)	0.0625 (≈ 0.0264 µM)	<1					
CC(=O)N[C@H](C(=O)N[C@H]1CSSC[C@@H](C(=O)N[C@@H](CO)C(N)=O)NC(=O)[C@H](C(C)C)NC(=O)[C@H]([C@H](C)O)NC(=O)[C@H](Cc2c[nH]c3ccccc23)NC(=O)[C@H](CO)NC(=O)[C@@H](CCN)NC(=O)[C@H](CCC(=O)N[C@@H](CCN)C(=O)N[C@H](C(=O)N[C@@H](CN)C(=O)N[C@H]2CCNC(=O)[C@H]([C@@H](C)O)NC(=O)[C@H](CCN)NC(=O)[C@H](CCN)NC(=O)[C@H](CC(C)C)NC(=O)[C@@H](CC(C)C)NC(=O)[C@H](CCN)NC2=O)[C@@H](C)O)NC(=O)[C@H](CCN)NC(=O)[C@H](Cc2ccc(O)cc2)NC1=O)C(C)C [Ex. 306] (I: Ac-VCY[Dab]E[dDab]SW[aThr]VCS-NH2 / II: [Dab]T[Dap][Dab][Dab][dL]L[Dab][Dab]T; disulfide I:2-I:11; amide I:5-II:N; lactam II:4-II:C)		0.0625 (≈ 0.0259 µM)				0.0625 (≈ 0.0259 µM)	0.125 (≈ 0.0518 µM)		0.0625 (≈ 0.0259 µM)	<1	0/3 died at 2 × 40 mg/kg	0.03125	0.0625	0.0625	0.0625
CC(=O)N[C@H](C(=O)N[C@H]1CSSC[C@@H](C(=O)N[C@@H](CO)C(N)=O)NC(=O)[C@H](C(C)C)NC(=O)[C@H](CO)NC(=O)[C@H](Cc2c[nH]c3ccccc23)NC(=O)[C@H](CCC(=O)N[C@@H](CCN)C(=O)N[C@H](C(=O)N[C@@H](CN)C(=O)N[C@H]2CCNC(=O)[C@H]([C@@H](C)O)NC(=O)[C@H](CCN)NC(=O)[C@H](CCN)NC(=O)[C@H](CC(C)C)NC(=O)[C@@H](CC(C)C)NC(=O)[C@H](CCN)NC2=O)[C@@H](C)O)NC(=O)[C@@H](CCN)NC(=O)[C@H](CCCN)NC(=O)[C@H](CCN)NC(=O)[C@H](Cc2ccc(O)cc2)NC1=O)C(C)C [Ex. 359] (I: Ac-VCY[Dab][Orn][dDab]EWSVCS-NH2 / II: [Dab]T[Dap][Dab][Dab][dL]L[Dab][Dab]T; disulfide I:2-I:11; amide I:7-II:N; lactam II:4-II:C)		0.125 (≈ 0.0515 µM)				0.25 (≈ 0.103 µM)	0.5 (≈ 0.206 µM)		0.125 (≈ 0.0515 µM)	1	0/3 died at 2 × 40 mg/kg	0.0625	0.0625	0.125	0.125
CC(C)C[C@@H]1NC(=O)[C@@H](CC(C)C)NC(=O)[C@H](CCN)NC(=O)[C@@H](NC(=O)[C@H](CCN)NC(=O)[C@@H](NC(=O)[C@H](CCN)NC(=O)CC[C@@H]2NC(=O)[C@H](CN)NC(=O)[C@H](Cc3ccc(O)cc3)NC(=O)[C@@H](NC(=O)[C@@H](O)C(C)C)CSSC[C@@H](C(=O)N[C@H](CO)[C@@H](C)O)NC(=O)[C@H](C(C)(C)C)NC(=O)[C@H](CO)NC(=O)[C@H](Cc3c[nH]c4ccccc34)NC(=O)[C@H]([C@@H](C)O)NC(=O)[C@@H](CCN)NC2=O)[C@@H](C)O)CCNC(=O)[C@H]([C@@H](C)O)NC(=O)[C@H](CCN)NC(=O)[C@H](CCN)NC1=O [Ex. 58] (I: H-[Hiv]CY[Dap]E[dDab]TWS[Tle]C[Thr(ol)] / II: [Dab]T[Dab][Dab][Dab][dL]L[Dab][Dab]T; disulfide I:2-I:11; amide I:5-II:N; lactam II:4-II:C)	0/3 died at 2 × 30 mg/kg	0.0625 (≈ 0.0262 µM)	0.0625 (≈ 0.0262 µM)	0.0625 (≈ 0.0262 µM)	0.125 (≈ 0.0524 µM)	0.125 (≈ 0.0524 µM)	0.25 (≈ 0.105 µM)	0.25 (≈ 0.105 µM)	0.125 (≈ 0.0524 µM)	1					
CC(=O)N[C@H](C(=O)N[C@H]1CSSC[C@@H](C(=O)N[C@@H](CO)C(N)=O)NC(=O)[C@H](C(C)C)NC(=O)[C@H](CO)NC(=O)[C@H](Cc2c[nH]c3ccccc23)NC(=O)[C@H](CCO)NC(=O)[C@@H](CCN)NC(=O)[C@H](CCC(=O)N[C@@H](CCN)C(=O)N[C@H](C(=O)N[C@@H](CN)C(=O)N[C@H]2CCNC(=O)[C@H]([C@@H](C)O)NC(=O)[C@H](CCN)NC(=O)[C@H](CCN)NC(=O)[C@H]([C@@H](C)O)NC(=O)[C@@H](CC(C)C)NC(=O)[C@H](CCN)NC2=O)[C@@H](C)O)NC(=O)[C@H](CCN)NC(=O)[C@H](Cc2ccc(O)cc2)NC1=O)C(C)C [Ex. 343] (I: Ac-VCY[Dab]E[dDab][hSer]WSVCS-NH2 / II: [Dab]T[Dap][Dab][Dab][dL]T[Dab][Dab]T; disulfide I:2-I:11; amide I:5-II:N; lactam II:4-II:C)		0.25 (≈ 0.104 µM)				0.25 (≈ 0.104 µM)	0.5 (≈ 0.208 µM)		0.125 (≈ 0.0521 µM)	<1	0/3 died at 2 × 40 mg/kg	0.03125	0.0625	0.0625	0.125
CC[C@@H]1NC(=O)[C@@H](CC(C)C)NC(=O)[C@H](CCN)NC(=O)[C@@H](NC(=O)[C@H](CN)NC(=O)[C@@H](NC(=O)[C@H](CCN)NC(=O)CC[C@@H]2NC(=O)[C@@H](NC(=O)[C@H](Cc3ccc(O)cc3)NC(=O)[C@@H](NC(=O)[C@@H](NC(C)=O)C(C)C)[C@@H](C)O)CSSC(C)(C)[C@@H](C(=O)N[C@H](C(=O)N[C@H](C(=O)N[C@H](C(N)=O)[C@@H](C)O)[C@@H](C)O)C(C)C)NC(=O)[C@H](Cc3c[nH]c4ccccc34)NC(=O)[C@H](CCN)NC(=O)[C@@H](CCN)NC2=O)[C@@H](C)O)CCNC(=O)[C@H]([C@@H](C)O)NC(=O)[C@H](CCN)NC(=O)[C@H](CCN)NC1=O [Ex. 266] (I: Ac-VTYCE[dDab][Dab]W[Pen]VTT-NH2 / II: [Dab]T[Dap][Dab][Dab][dL][Abu][Dab][Dab]T; disulfide I:4-I:9; amide I:5-II:N; lactam II:4-II:C)	0/3 died at 2 × 30 mg/kg	0.5 (≈ 0.205 µM)	0.03125 (≈ 0.0128 µM)	0.0625 (≈ 0.0256 µM)	0.0625 (≈ 0.0256 µM)	0.5 (≈ 0.205 µM)	1 (≈ 0.41 µM)	0.125 (≈ 0.0512 µM)	0.25 (≈ 0.102 µM)	1					
CC(C)C[C@@H]1NC(=O)[C@@H](CC(C)C)NC(=O)[C@H](CCN)NC(=O)[C@@H](NC(=O)[C@H](CCN)NC(=O)[C@@H](NC(=O)[C@H](CCN)NC(=O)CC[C@@H]2NC(=O)[C@H](CCN)NC(=O)[C@H](C(C)C)NC(=O)[C@@H](NC(=O)[C@@H](O)C(C)C)CSSC[C@@H](C(=O)N[C@H](CO)Cc3ccc(O)cc3)NC(=O)[C@H](C(C)(C)C)NC(=O)[C@H](CO)NC(=O)[C@H](Cc3c[nH]c4ccccc34)NC(=O)[C@H](CCO)NC(=O)[C@@H](CCN)NC2=O)[C@@H](C)O)CCNC(=O)[C@H]([C@@H](C)O)NC(=O)[C@H](CCN)NC(=O)[C@H](CCN)NC1=O [Ex. 92] (I: H-[Hiv]CV[Dab]E[dDab][hSer]WS[Tle]C-Tyrosinol / II: [Dab]T[Dab][Dab][Dab][dL]L[Dab][Dab]T; disulfide I:2-I:11; amide I:5-II:N; lactam II:4-II:C)	0/3 died at 2 × 30 mg/kg	0.125 (≈ 0.0521 µM)	0.0625 (≈ 0.0261 µM)	0.125 (≈ 0.0521 µM)	0.0625 (≈ 0.0261 µM)	0.0625 (≈ 0.0261 µM)	0.125 (≈ 0.0521 µM)	0.125 (≈ 0.0521 µM)	0.25 (≈ 0.104 µM)	<1					
